Data set [1] addresses T1, rat histamine H3 receptor (Rattus norvegicus, UniProt Q9QYN8).
T1 construct: encoding the entire 445-amino-acid rat histamine H3 receptor; expressed in transfected cells
Description: Rat H3 radioligand binding ([3H]-N-alpha-methylhistamine, CHO-A3 cell membranes, SPA). The following applies: Table B, binding constant as letter class; read-out: rat H3 Ki. In short, it runs like this: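 Scintillation proximity displacement of about 1 nM [3H]-N-alpha-methylhistamine, test compound 0.01 nM-30 μM, 4 h, room temperature, in the dark. Receptor source: rat H3 stably transfected into CHO-A3 cells, 10 μg membrane protein, Tris-HCl pH 7.4/MgCl2/BSA buffer. Nonspecific binding defined by 10 μM clobenpropit.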

The next data set concerns the target T2, human H3 receptor (Homo sapiens, UniProt Q9Y5N1).
T2 construct: expressed in transfected cells
Description: Human H3 radioligand binding ([3H]-N-alpha-methylhistamine, CHO cell membranes, SPA). The following applies: Table B, binding constant as letter class. A digest of the protocol: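 Scintillation proximity format: bead-proximal [3H]-N-alpha-methylhistamine (approximately 1 nM final) bound to human H3 receptor in CHO membranes was counted after 4 h at room temperature, light-protected. Buffer was pH 7.4 Tris/MgCl2/BSA; test compounds spanned 0.01 nM-30 μM; 10 μM clobenpropit set non-specific binding.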

From patent publication US8586588B2, “Aryl pyridazinone derivatives and their use as H3 receptor ligands” (Cephalon, Inc., priority 2006, dated 2013) come the findings set out here.

SMILES strings stand for the structures. Counter-ions that a name gives are not always drawn.

Broadly, the melting point is the temperature of the solid-liquid transition. As a reminder, the Ki is the equilibrium dissociation constant of an inhibitor or competing ligand from its target.

T1 sequence (Q9QYN8 whole entry): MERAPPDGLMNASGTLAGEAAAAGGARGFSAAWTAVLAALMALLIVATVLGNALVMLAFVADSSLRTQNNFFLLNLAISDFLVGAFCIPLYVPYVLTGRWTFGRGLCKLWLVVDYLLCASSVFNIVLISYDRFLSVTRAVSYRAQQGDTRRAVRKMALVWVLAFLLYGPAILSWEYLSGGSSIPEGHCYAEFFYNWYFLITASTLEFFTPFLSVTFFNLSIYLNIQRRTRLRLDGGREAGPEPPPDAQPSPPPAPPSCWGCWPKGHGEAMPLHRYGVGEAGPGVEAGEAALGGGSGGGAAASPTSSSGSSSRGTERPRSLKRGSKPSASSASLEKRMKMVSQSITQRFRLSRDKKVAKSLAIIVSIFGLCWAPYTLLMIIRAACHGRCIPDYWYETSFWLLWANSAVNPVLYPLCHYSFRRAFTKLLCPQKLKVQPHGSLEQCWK
T2 sequence (Q9Y5N1 whole entry): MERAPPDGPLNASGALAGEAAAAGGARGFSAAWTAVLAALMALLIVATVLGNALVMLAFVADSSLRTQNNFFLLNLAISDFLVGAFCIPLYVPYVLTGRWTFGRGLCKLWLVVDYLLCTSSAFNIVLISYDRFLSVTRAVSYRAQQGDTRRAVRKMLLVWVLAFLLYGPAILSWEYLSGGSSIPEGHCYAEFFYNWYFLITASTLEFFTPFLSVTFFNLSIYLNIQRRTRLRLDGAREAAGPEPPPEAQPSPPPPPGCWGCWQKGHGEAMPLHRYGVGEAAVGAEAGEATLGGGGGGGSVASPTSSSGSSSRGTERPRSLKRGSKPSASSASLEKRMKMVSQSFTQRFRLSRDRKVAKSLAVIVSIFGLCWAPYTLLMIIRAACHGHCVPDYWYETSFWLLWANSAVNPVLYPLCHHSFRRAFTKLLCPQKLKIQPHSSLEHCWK

In the case of `C[C@@H]1CCCN1CCCOc1ccc(-c2ccc(=O)n(C)n2)cc1` (as salt: HCl) [Example 1, 2-Methyl-6-{4-[3-((R)-2-methyl-pyrrolidin-1-yl)-propoxy]-phenyl}-2H-pyridazin-3-one], the melting point was 183 to 185 °C.

On to `Cn1nc(-c2ccc(OCCCN3CCCCC3)cc2)ccc1=O` (as salt: HCl) [Example 2, 2-Methyl-6-[4-(3-piperidin-1-yl-propoxy)-phenyl]-2H-pyridazin-3-one], for which the melting point is 200 to 201 °C.

For the molecule `CC(C)n1nc(-c2ccc(OCCCN3CCCCC3)cc2)ccc1=O` (as salt: HCl) [Example 3, 2-Isopropy1-6-[4-(3-piperidin-1-yl-propoxy)-pheny1]-2H-pyridazin-3-one], the melting point is 118 to 122 °C.

`C[C@@H]1CCCN1CCCOc1ccc(-c2ccc(=O)n(C)n2)cc1F` (as salt: HCl) [Example 7, 6-{3-Fluoro-4-[3-((R)-2-methyl-pyrrolidin-1-yl)-propoxy]-phenyl}-2-methyl-2H-pyridazin-3-one] showed a melting point of 140 to 142 °C.

Turning to `O=c1ccc(-c2ccc(OCCCN3CCCCC3)c(F)c2)nn1-c1ccccc1` (as salt: HCl) [Example 10, 6-[3-Fluoro-4-(3-piperidin-1-yl-propoxy)-phenyl]-2-phenyl-2H-pyridazin-3-one], the melting point lay in the range of 230 to 232 °C.

On to `C[C@@H]1CCCN1CCCOc1ccc(-c2n[nH]c(=O)c3c2CCC3)cc1` (as salt: HCl) [Example 12, 4-{4-[3-((R)-2-Methyl-pyrrolidin-1-yl)-propoxy]-phenyl}-2,5,6,7-tetrahydro-cyclopenta[d]pyridazin-1-one], for which the melting point was 147 °C.

Molecule `C[C@H](COc1ccc(-c2ccc(=O)n(C)n2)cc1)CN1CCC[C@H]1C` (as salt: HCl) [Example 13, 2-Methyl-6-{4-[(S)-2-methyl-3-((R)-2-methyl-pyrrolidin-1-yl)-propoxy]-phenyl}-2H-pyridazin-3-one] displayed a melting point of 188 to 190 °C.

`Cn1nc(-c2ccc(OCCCN3CCC[C@H]3CO)cc2)ccc1=O` (as salt: HCl) [Example 14, 6-{4-[3-((S)-2-Hydroxymethyl-pyrrolidin-1-yl)-propoxy]-phenyl}-2-methyl-2H-pyridazin-3-one]: the melting point is 169 °C.

For the molecule `Cn1nc(-c2ccc(OCCCN3CCC[C@@H]3CO)cc2)ccc1=O` (as salt: HCl) [Example 15, 6-{4-[3-((R)-2-Hydroxymethyl-pyrrolidin-1-yl)-propoxy]-phenyl}-2-methyl-2H-pyridazin-3-one], the melting point lay within 166 to 167 °C.

Molecule `C[C@@H]1CCCN1CCCOc1ccc(C2=NN(Cc3ccccc3)C(=O)CC2)cc1` (as salt: HCl) [Example 17, 2-Benzyl-6-{4-[3-((R)-2-methyl-pyrrolidin-1-yl)-propoxy]-phenyl}-4,5-dihydro-2H-pyridazin-3-one] had a melting point of 56 to 58 °C.

The molecule `C[C@@H]1CCCN1CCCOc1ccc(-c2ccc(=O)n(Cc3ccccc3)n2)cc1` (as salt: HCl) [Example 18, 2-Benzyl-6-{4-[3-((R)-2-methyl-pyrrolidin-1-yl)-propoxy]-phenyl}-2H-pyridazin-3-one] came in with a melting point of 228 to 230 °C.

For the molecule `C[C@@H]1CCCN1CCCOc1ccc(C2=NN(c3ccccc3)C(=O)CC2)cc1` (as salt: HCl) [Example 19], the melting point fell in the range of 213 to 215 °C.

With `C[C@@H]1CCCN1CCCOc1ccc2c(c1)CCc1n[nH]c(=O)cc1-2` [Example 218, 8-[3-((R)-2-Methyl-pyrrolidin-1-yl)-propoxy]-5,6-dihydro-3H-benzo[f]cinnolin-2-one], the Ki (in data set [1]; at human H3 receptor) was 0.1 to 100 nM throughout.

On to `O=C1CCC(c2ccc(OC3CCN(C4CCC4)CC3)cc2F)=NN1` [Example 219, 6-[4-(1-Cyclobutyl-piperidin-4-yloxy)-2-fluoro-phenyl]-4,5-dihydro-2H-pyridazin-3-one], for which the inhibition constant Ki (in data set [1]; at human H3 receptor) was 0.1 to 100 nM each time.

On to `C[C@@H]1CCCN1CCCOc1ccc(-c2cn[nH]c(=O)c2)cc1` [Example 223, 5-{4-[3-((R)-2-Methyl-pyrrolidin-1-yl)-propoxy]-phenyl}-2H-pyridazin-3-one], for which the Ki (in data set [1]; at human H3 receptor) was 0.1 to 100 nM in each case.

As for `COCn1ncc(-c2ccc(OCCCN3CCC[C@H]3C)cc2C)cc1=O` [Example 230, 2-Methoxymethyl-5-{2-methyl-4-[3-((R)-2-methyl-pyrrolidin-1-yl)-propoxyl]-phenyl}-2H-pyridazin-3-one], the Ki (in data set [1]; at human H3 receptor) was 0.1 to 100 nM in each case.

Take `Cc1cc(OCCCN2CCC[C@H]2C)ccc1-c1cn[nH]c(=O)c1` [Example 231, 5-{2-methyl-4-[3-((R)-2-methyl-pyrrolidin-1-yl)-propoxyl]-phenyl}-2H-pyridazin-3-one]: the Ki (in data set [1]; at human H3 receptor) was 0.1 to 100 nM each time.

Take `COCn1ncc(-c2ccc(OCCCN3CCCCC3)cc2C)cc1=O` [Example 232, 2-Methoxymethyl-5-[2-methyl-4-(3-piperidin-1-yl-propoxy)-phenyl]-2H-pyridazin-3-one]: the Ki (in data set [1]; on human H3 receptor) was 0.1 to 100 nM in each case.

Take `COCn1ncc(-c2ccc(OC3CCN(C4CCC4)CC3)cc2C)cc1=O` [Example 234, 5-[4-(1-Cyclobutyl-piperidin-4-yloxy)-2-methyl-phenyl]-2-methoxymethyl-2H-pyridazin-3-one]: the Ki (in data set [1]; on human H3 receptor) was 0.1 to 100 nM each time.

In the case of `COCn1ncc(-c2ccc(OCCCN3CCC[C@H]3C)cc2)c(OC)c1=O` [Example 235, 4-Methoxy-2-methoxymethyl-5-{4-[3-((R)-2-methyl-pyrrolidin-1-yl)-propoxy]-phenyl}-2H-pyridazin-3-one], the Ki (in data set [1]; at human H3 receptor) was 0.1 to 100 nM in each case.

For `COCn1ncc(OC)c(-c2ccc(OCCCN3CCC[C@H]3C)cc2)c1=O` [Example 236, 5-Methoxy-2-methoxymethyl-4-{4-[3-((R)-2-methyl-pyrrolidin-1-yl)-propoxy]-phenyl}-2H-pyridazin-3-one], the Ki (in data set [1]; at human H3 receptor) was 0.1 to 100 nM each time.

For `COc1cn[nH]c(=O)c1-c1ccc(OCCCN2CCC[C@H]2C)cc1` [Example 237, 5-Methoxy-4-{4-[3-((R)-2-methyl-pyrrolidin-1-yl)-propoxy]-phenyl}-2H-pyridazin-3-one], the inhibition constant (Ki) (in data set [1]; on human H3 receptor) was 0.1 to 100 nM in each case.

For the molecule `O=c1ccc(-c2ccc(OCCCN3CCOCC3)cc2)n[nH]1` [Example 238, 6-[4-(3-Morpholin-4-yl-propoxy)-phenyl]-2H-pyridazin-3-one], the Ki (in data set [1]; at human H3 receptor) was greater than 1000 nM in each case.

In the case of `C[C@H]1CCCN1CCCOc1ccc(-c2ccc(=O)[nH]n2)cc1` [Example 239, 6-{4-[3-((S)-2-Methyl-pyrrolidin-1-yl)-propoxy]-phenyl}-2H-pyridazin-3-one], the inhibition constant Ki (in data set [1]; at human H3 receptor) was 0.1 to 100 nM throughout.

`CCN1N=C(c2ccc(OC3CCN(C4CCC4)CC3)cc2)C2CC2C1=O` (stereo not shown) [Example 250, 5-[4-(1-Cyclobutyl-piperidin-4-yloxy)-phenyl]-3-ethyl-3,4-diaza-bicyclo[4.1.0]hept-4-en-2-one]: the Ki (in data set [1]; on human H3 receptor) was 0.1 to 100 nM each time.

On to `CC(C)N1N=C(c2ccc(OC3CCN(C4CCC4)CC3)cc2)C2CC2C1=O` (stereo not shown) [Example 251, 5-[4-(1-Cyclobutyl-piperidin-4-yloxy)-phenyl]-3-isopropyl-3,4-diaza-bicyclo[4.1.0]hept-4-en-2-one], for which the inhibition constant Ki (in data set [1]; at human H3 receptor) was 0.1 to 100 nM each time.

Consider `CN1N=C(c2ccc(OC3CCN(C4CCC4)CC3)cc2)C2CC2C1=O` (stereo not shown) [Example 252, 5-[4-(1-Cyclobutyl-piperidin-4-yloxy)-phenyl]-3-methyl-3,4-diaza-bicyclo[4.1.0]hept-4-en-2-one], for which the Ki (in data set [1]; on human H3 receptor) was 0.1 to 100 nM each time.

Take `O=C1C2CC2C(c2ccc(OC3CCN(C4CCC4)CC3)cc2)=NN1c1ccc(F)cc1` (stereo not shown) [Example 253, 5-[4-(1-Cyclobutyl-piperidin-4-yloxy)-phenyl]-3-(4-fluoro-phenyl)-3,4-diaza-bicyclo[4.1.0]hept-4-en-2-one]: the inhibition constant (Ki) (in data set [1]; at human H3 receptor) was 0.1 to 100 nM in each case.

With `O=C1C2CC2C(c2ccc(OC3CCN(C4CCC4)CC3)cc2)=NN1CC(F)(F)F` (stereo not shown) [Example 254, 5-[4-(1-Cyclobutyl-piperidin-4-yloxy)-phenyl]-3-(2,2,2-trifluoro-ethyl)-3,4-diaza-bicyclo[4.1.0]hept-4-en-2-one], the inhibitory constant (Ki) (in data set [1]; on human H3 receptor) was 0.1 to 100 nM in each case.

For the molecule `CN1N=C(c2ccc(OC3CCN(C4CCCC4)CC3)cc2)C2CC2C1=O` (stereo not shown) [Example 260, 5-[4-(1-Cyclopentyl-piperidin-4-yloxy)-phenyl]-3-methyl-3,4-diaza-bicyclo[4.1.0]hept-4-en-2-one], the inhibition constant (Ki) (in data set [1]; on human H3 receptor) was 0.1 to 100 nM in each case.

Regarding `O=C1NN=C(c2ccc(OC3CCN(C4CCCC4)CC3)cc2)C2CC12` (stereo not shown) [Example 261, 5-[4-(1-Cyclopentyl-piperidin-4-yloxy)-phenyl]-3,4-diaza-bicyclo[4.1.0]hept-4-en-2-one], the Ki (in data set [1]; at human H3 receptor) was 0.1 to 100 nM in each case.

For the molecule `C[C@@H]1CCCN1CCCOc1ccc(-n2nc(C3CC3)ccc2=O)cc1` [Example 262, 6-Cyclopropyl-2-{4-[3-((R)-2-methyl-pyrrolidin-1-yl)-propoxy]-phenyl}-2H-pyridazin-3-one], the inhibition constant (Ki) in data set [1] was 101 to 500 nM; on human H3 receptor, 0.1 to 100 nM.
